Assay results taken from patent US9175003B2, “Substituted azoanthracene derivatives and intermediates for preparation thereof” (TransTech Pharma, LLC, priority 2009, dated 2015).

The compounds below were run against human GLP-1 receptor (Homo sapiens (Human), UniProt P43220). Details: read-out: Mean EC50; cAMP, HTRF detection, 30 min at 37° C., HEK-293 cells expressing cloned human GLP-1 receptor.
Chain of human GLP-1 receptor (P43220 24-463): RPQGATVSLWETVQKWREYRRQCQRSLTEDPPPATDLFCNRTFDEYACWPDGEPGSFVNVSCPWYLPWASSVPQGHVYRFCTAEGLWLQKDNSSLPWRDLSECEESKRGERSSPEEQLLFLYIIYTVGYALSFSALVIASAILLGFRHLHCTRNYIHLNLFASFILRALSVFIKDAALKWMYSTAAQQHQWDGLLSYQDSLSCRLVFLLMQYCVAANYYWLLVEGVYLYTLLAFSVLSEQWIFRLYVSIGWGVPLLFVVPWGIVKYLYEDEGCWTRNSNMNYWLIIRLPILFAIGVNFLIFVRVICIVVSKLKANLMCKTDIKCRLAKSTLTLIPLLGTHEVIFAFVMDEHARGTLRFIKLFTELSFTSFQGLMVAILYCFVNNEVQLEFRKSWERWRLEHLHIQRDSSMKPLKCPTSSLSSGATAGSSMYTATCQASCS

| SMILES | EC50 [nM] |
| --- | --- |
| Cc1nc(NC(=O)C(C)C)sc1S(=O)(=O)N1Cc2cc3c(cc2C[C@H]1C(=O)N[C@@H](Cc1ccc(-c2ccc(C#N)cc2)cc1)C(=O)O)OCC(c1ccc(OCc2ccc(Cl)c(Cl)c2)cc1)O3 (stereo in doubt) [Example 114, (S)-3-(4′-Cyano-biphenyl-4-yl)-2-{[(S)-3-[4-(3,4-dichloro-benzyloxy)-phenyl]-7-(2-isobutyrylamino-4-methyl-thiazole-5-sulfonyl)-2,3,6,7,8,9-hexahydro-[1,4]dioxino[2,3-g]isoquinoline-8-carbonyl]-amino}-propionic acid] | 232 |
| Cc1nccc(-c2ccc(C[C@H](NC(=O)[C@@H]3Cc4cc5c(cc4CN3C(=O)c3cc(F)cc(F)c3)O[C@@H](c3ccc(OCc4ccc(Cl)c(Cl)c4)cc3)CO5)C(=O)O)cc2)c1C [Example 278, (S)-2-{[(3S,8S)-3-[4-(3,4-Dichloro-benzyloxy)-phenyl]-7-(3,5-difluoro-benzoyl)-2,3,6,7,8,9-hexahydro-[1,4]dioxino[2,3-g]isoquinoline-8-carbonyl]-amino}-3-[4-(2,3-dimethyl-pyridin-4-yl)-phenyl]-propionic acid] | 45 |
| Cc1nccc(-c2ccc(C[C@H](NC(=O)[C@@H]3Cc4cc5c(cc4CN3C(=O)NC3CCCC3)O[C@@H](c3ccc(OCc4ccc(Cl)c(Cl)c4)cc3)CO5)C(=O)O)cc2)c1C [Example 248, (S)-2-({(3S,8S)-7-Cyclopentylcarbamoyl-3-[4-(3,4-dichloro-benzyloxy)-phenyl]-2,3,6,7,8,9-hexahydro-[1,4]dioxino[2,3-g]isoquinoline-8-carbonyl}-amino)-3-[4-(2,3-dimethyl-pyridin-4-yl)-phenyl]-propionic acid] | 187 |
| Cc1nc(C(=O)N2Cc3cc4c(cc3C[C@H]2C(=O)N[C@@H](Cc2ccc(-c3ccnc(C)c3C)cc2)C(=O)O)OC[C@H](c2ccc(OCc3cc(F)cc(F)c3)cc2)O4)c(C)o1 [Example 357, (S)-2-{[(3S,8S)-3-[4-(3,5-Difluoro-benzyloxy)-phenyl]-7-(2,5-dimethyl-oxazole-4-carbonyl)-2,3,6,7,8,9-hexahydro-[1,4]dioxino[2,3-g]isoquinoline-8-carbonyl]-amino}-3-[4-(2,3-dimethyl-pyridin-4-yl)-phenyl]propionic acid] | 19 |
| Cc1ccccc1CN1Cc2cc3c(cc2C[C@H]1C(=O)N[C@@H](Cc1ccc(-c2ccnc(C)c2C)cc1)C(=O)O)OC[C@H](c1ccc(OCc2ccc(Cl)c(Cl)c2)cc1)O3 [Example 176, (S)-2-{[(3S,8S)-3-[4-(3,4-Dichloro-benzyloxy)-phenyl]-7-(2-methyl-benzyl)-2,3,6,7,8,9-hexahydro-[1,4]dioxino[2,3-g]isoquinoline-8-carbonyl]-amino}-3-[4-(2,3-dimethyl-pyridin-4-yl)-phenyl]-propionic acid] | 4 |
| Cc1nc(C(=O)N2Cc3cc4c(cc3C[C@H]2C(=O)N[C@@H](Cc2ccc(-c3ccnc(C)c3C)cc2)C(=O)O)OC[C@H](c2ccc(OCc3ccc(C)c(C)c3)cc2)O4)c(C)o1 [Example 217, (S)-2-{[(3S,8S)-3-[4-(3,4-Dimethyl-benzyloxy)-phenyl]-7-(2,5-dimethyl-oxazole-4-carbonyl)-2,3,6,7,8,9-hexahydro-[1,4]dioxino[2,3-g]isoquinoline-8-carbonyl]-amino}-3-[4-(2,3-dimethyl-pyridin-4-yl)-phenyl]-propionic acid] | 24 |
| Cc1nc(CN2Cc3cc4c(cc3C[C@H]2C(=O)N[C@@H](Cc2ccc(-c3ccnc(C)c3C)cc2)C(=O)O)OC[C@H](c2ccc(OCc3ccc(Cl)c(Cl)c3)cc2)O4)c(C)o1 [Example 232, (S)-2-{[(3S,8S)-3-[4-(3,4-Dichloro-benzyloxy)-phenyl]-7-(2,5-dimethyl-oxazol-4-ylmethyl)-2,3,6,7,8,9-hexahydro-[1,4]dioxino[2,3-g]isoquinoline-8-carbonyl]-amino}-3-[4-(2,3-dimethyl-pyridin-4-yl)-phenyl]-propionic acid] | 133 |
| CCOc1ccc([C@H]2COc3cc4c(cc3O2)CN([C@@H](CC)c2ccccc2)[C@H](C(=O)N[C@@H](Cc2ccc(-c3ccnc(C)c3C)cc2)C(=O)O)C4)cc1 [Example 170, (S)-3-[4-(2,3-Dimethyl-pyridin-4-yl)-phenyl]-2-{[(3S,8S)-3-(4-ethoxy-phenyl)-7-((S)-1-phenyl-propyl)-2,3,6,7,8,9-hexahydro-[1,4]dioxino[2,3-g]isoquinoline-8-carbonyl]-amino}-propionic acid] | 538 |
| Cc1nc(C(=O)N2Cc3cc4c(cc3C[C@H]2C(=O)N[C@@H](Cc2ccc(-c3ccnc(C)c3C)cc2)C(=O)O)OC[C@H](c2ccc(OCCc3ccc(Cl)c(Cl)c3)cc2)O4)c(C)o1 [Example 387, (S)-2-{[(3S,8S)-3-{4-[2-(3,4-Dichloro-phenyl)-ethoxy]-phenyl}-7-(2,5-dimethyl-oxazole-4-carbonyl)-2,3,6,7,8,9-hexahydro-[1,4]dioxino[2,3-g]isoquinoline-8-carbonyl]-amino}-3-[4-(2,3-dimethyl-pyridin-4-yl)-phenyl]-propionic acid] | 34 |
| CNc1nc(C)c(S(=O)(=O)N2Cc3cc4c(cc3C[C@H]2C(=O)N[C@@H](Cc2ccc(-c3ccc(C#N)cc3)cc2)C(=O)O)OC[C@H](c2ccc(OCc3ccc(Cl)c(Cl)c3)cc2)O4)s1 [Example 85, (S)-3-(4′-Cyano-biphenyl-4-yl)-2-{[(3S,8S)-3-[4-(3,4-dichloro-benzyloxy)-phenyl]-7-(4-methyl-2-methylamino-thiazole-5-sulfonyl)-2,3,6,7,8,9-hexahydro-[1,4]dioxino[2,3-g]isoquinoline-8-carbonyl]-amino}-propionic acid] | 263 |
| Cc1nccc(-c2ccc(C[C@H](NC(=O)[C@@H]3Cc4cc5c(cc4CN3C(=O)N[C@H](C)c3ccccc3)O[C@H](c3ccc(OCc4ccc(Cl)c(Cl)c4)cc3)CO5)C(=O)O)cc2)c1C [Example 429, (S)-2-{[(3R,8S)-3-[4-(3,4-Dichloro-benzyloxy)-phenyl]-7-((R)-1-phenyl-ethylcarbamoyl)-2,3,6,7,8,9-hexahydro-[1,4]dioxino[2,3-g]isoquinoline-8-carbonyl]-amino}-3-[4-(2,3-dimethyl-pyridin-4-yl)-phenyl]-propionic acid] | 32 |
| Cc1cc(C(=O)N2Cc3cc4c(cc3C[C@H]2C(=O)N[C@@H](Cc2ccc(-c3ccnc(C)c3C)cc2)C(=O)O)OC[C@H](c2ccc(OCc3ccc(Cl)c(Cl)c3)cc2)O4)no1 [Example 271, (S)-2-{[(3S,8S)-3-[4-(3,4-Dichloro-benzyloxy)-phenyl]-7-(5-methyl-isoxazole-3-carbonyl)-2,3,6,7,8,9-hexahydro-[1,4]dioxino[2,3-g]isoquinoline-8-carbonyl]-amino}-3-[4-(2,3-dimethyl-pyridin-4-yl)-phenyl]-propionic acid] | 102 |
| Cc1nc(C(=O)N2Cc3cc4c(cc3C[C@H]2C(=O)N[C@@H](Cc2ccc(-c3ccnc(C)c3C)cc2)C(=O)O)OC[C@H](c2ccc(OCC3CCCC3)cc2)O4)c(C)o1 [Example 379, (S)-2-{[(3S,8S)-3-(4-cyclopentylmethoxy-phenyl)-7-(2,5-dimethyl-oxazole-4-carbonyl)-2,3,6,7,8,9-hexahydro-[1,4]dioxino[2,3-g]isoquinoline-8-carbonyl]-amino}-3-[4-(2,3-dimethyl-pyridin-4-yl)-phenyl]-propionic acid] | 152 |
